Data: paper PMC6274005, “Interaction of Di-2-pyridylketone 2-pyridine Carboxylic Acid Hydrazone and Its Copper Complex with BSA: Effect on Antitumor Activity as Revealed by Spectroscopic Studies” (Molecules, 2016)

Tests used:
HepG2 cells [1] = tested on: HepG2 cells; design: method as in PMID 26398524; conditions: cited from earlier work
HepG2 cells [2] = assay: MTT cytotoxicity assay in the absence or presence of BSA; format: cell-based; conditions: agent-BSA 1:1, medium without FCS, 8 h incubation
Method: It has been reported that HSA could enhance the anti-proliferative activity of Dp44mT [13]. Thus, we examined the effect of BSA on both DPPCAH- and DPPCAH-Cu-mediated inhibition of HepG2 cells in which BSA was the main protein source in the cell culture.
Figure 1 Inhibition of proliferation of HepG2 cells by DPPCAH and DPPCAH-Cu in the absence or presence of BSA. Dpp = DPPCAH; * p < 0.01 (t-test).
A stock solution of DPPCAH (10 mM) was prepared in 80% DMSO, and was diluted to the required concentration with culture medium when used. The DPPCAH-Cu was prepared by mixing highly concentrated copper chloride with DPPCAH based on 1:1 molar ratio, and diluted to the required concentration with water. BSA was dissolved in PBS and was sterilized by filter sterilization method. HepG2 cells were cultured in RPMI-1640 medium supplemented with 10% fetal calf serum (FCS) and antibiotics. The cells collected in the exponential-phase (5 × 10^3 /mL) were seeded equivalently into a 96-well plate, followed by 6 h of incubation. […] The plate was read using a microplate reader (MK3; Thermo Fisher Scientific (Shanghai) Co. LTD, Shanghai, China) at 570 nm and the measurement of absorbance represented an estimate of the number of viable cells. Percent growth inhibition was defined as percent absorbance inhibition within appropriate absorbance in each cell line. […]

BSA [3] = molecular target: T1, BSA (Bos taurus, UniProt P02769); assay: Fluorescence resonance energy transfer (FRET) between BSA and bound agent; format: binding, bovine; conditions: for r (distance from bound agent to Trp-213 residue of BSA): FRET; for R0 (critical distance at 50% energy transfer efficiency): K^2 = 2/3, N = 1.336, ф = 0.15
T1 sequence (P02769 25-607): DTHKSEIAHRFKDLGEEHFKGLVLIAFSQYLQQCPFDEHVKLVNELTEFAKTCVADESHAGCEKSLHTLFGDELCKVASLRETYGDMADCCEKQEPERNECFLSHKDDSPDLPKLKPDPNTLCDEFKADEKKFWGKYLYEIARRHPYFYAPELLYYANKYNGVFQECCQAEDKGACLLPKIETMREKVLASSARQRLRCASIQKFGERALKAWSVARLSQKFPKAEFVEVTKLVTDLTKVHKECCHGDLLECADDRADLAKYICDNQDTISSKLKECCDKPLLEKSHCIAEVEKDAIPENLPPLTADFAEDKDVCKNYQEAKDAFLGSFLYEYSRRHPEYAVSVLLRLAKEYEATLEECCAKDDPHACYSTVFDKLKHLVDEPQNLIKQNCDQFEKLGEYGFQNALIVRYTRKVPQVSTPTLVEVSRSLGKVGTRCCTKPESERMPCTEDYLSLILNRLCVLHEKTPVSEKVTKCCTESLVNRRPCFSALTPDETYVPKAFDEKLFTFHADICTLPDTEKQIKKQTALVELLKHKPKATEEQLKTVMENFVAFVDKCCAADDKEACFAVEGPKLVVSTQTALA
Method: Further, the distance R between the two Trp residues in BSA and the bound DPPCAH (DPPCAH-Cu) was determined using the fluorescence resonance energy transfer (FRET) method. Generally, FRET occurs whenever the emission spectrum of a fluorophore (donor) overlaps with the absorption spectrum of the bound molecule (acceptor). The efficiency of energy transfer could be used to evaluate the distance between the drug and the Trp213 residue in BSA. The relationship between the distance and efficiency of FRET is described by the following equation: (4) E=1−F/F0=R06/R06+r^6 where, r is the distance between acceptor and donor and, R0 is the critical distance when the energy transfer efficiency is 50%. The value of R0 is calculated using the following equation: (5) R=8.8×10^−25 K^2 N^−4ΦJ where, K^2 is the relative orientation of the transition dipoles of donor and acceptor (K^2 = 2/3 for a random orientation); N is the average refractive index of the medium (N = 1.336); ф is the fluorescence quantum yield of donor (ф = 0.15); J is a factor describing the spectral overlap between the emission spectrum of donor and the absorption spectrum of acceptor. J is calculated using the following equation: (6) J=∑F(λ)ε(λ)λ^4Δλ/∑F(λ)Δλ where, λ is wavelength. To calculate the distance (r), E and J value are required. These values are derived from the fluorescence data and overlapped area between the emission spectrum of BSA and the absorption spectrum of DPPCAH (or DPPCAH-Cu) as shown in Figure 6a (or Figure 6b) after normalization. The experimental value for the efficiency to be used in Equation (4) was estimated by measuring the fluorescence at equal protein-ligand concentration as described in [27].
Absorbance spectrum of DPPCAH and DPPCAH-Cu were recorded on a UV-2450 spectrophotometer (Shimadzu (Suzhou) Co. Ltd., Suzhou, China) within the UV region in the range of 300 to 450 nm. Final concentrations of the agents concentration used for measurements were 10 μM (in Tris-HCl buffer, pH 7.2).
For the fluorescence spectra, the excitation wavelength was set at 280 nm and the emission spectra were recorded in the range of 300 to 450 nm. Both excitation and emission slit widths were adjusted to 5 nm. In this assay, 4.0 mL of BSA solution at a fixed concentration of […] was accurately added into the quartz cell (1 cm path length), and was manually titrated by successive additions of 10 mM DPPCAH (or DPPCAH-Cu) at intervals of 5 min. Fluorescence emission spectra were then measured on a RF-5301 Spectrofluorophotometer (Shimadzu Scientific Instruments, Kyoto, Japan) at three different temperatures (288, 303, and 310 K). In order to calculate the peak area, the integration of spectra was done in the range of 300 to 450 nm. Synchronous fluorescence spectra were recorded by simultaneously scanning the excitation and emission monochromators, in which a constant wavelength interval was maintained between them. The wavelength interval (Δλ = λem − λex) was fixed individually at 60 nm, at which characteristic information of pertaining to Trp residues was obtained.

BSA [4] = molecular target: T1, BSA; assay: Circular dichroism spectra of BSA, secondary structure simulated with K2D2; design: species or system bovine; conditions: molar ratio drug/protein = 2; CBSA = 15 μM; K2D2 simulation of CD data
Method: A direct calculation of secondary structures using experimental data was employed, but owing to the larger errors, the K2D2 software was used to simulate the experimental data of CD in the present study. The simulated curves are represented in the Supplementary Materials (Figure S1). In the absence of DPPCAH, the α-helix and β-sheet of BSA were 52% and 8.29% respectively.
BSA CD spectra in the range of 190–250 nm were recorded on a Chirascan (Applied Photophysics Ltd., Surrey, UK) with a 1.0 cm quartz cell in nitrogen atmosphere. BSA CD measurements in the presence and absence of DPPCAH (or DPPCAH-Cu) were performed with a scan rate of 50 nm/min. The A stock solution of 1.5 × 10^−5 M BSA was prepared in PBS. A 10 mM stock solution of DPPCAH was prepared in DMSO and the stock solution was diluted to 1.5 mM with water for measurements. Similarly, a solution of DPPCAH-Cu was prepared by mixing the DPPCAH solution with higher concentration of CuCl2 in water. The BSA concentration was held constant, while the DPPCAH concentration was varied (0, 1.5, 3.0 × 10^−5 M). The final concentration of DMSO in the measurements was less 0.5%. The buffer solution was chosen as the blank, and was manually subtracted from each spectrum during scanning. Each sample was scanned three times and the average was recorded for the CD spectrum.

Compound: O=C(NN=C(c1ccccn1)c1ccccn1)c1ccccn1 [DPPCAH, di-2-pyridylketone-2-pyridine carboxylic acid hydrazone]
- IC50 (HepG2 cells [1]; read-out: IC50, growth inhibition of HepG2 cells): 4.6 ± 0.2 µM
- effect of BSA on growth inhibition of HepG2 cells mediated by the agent (HepG2 cells [2]): attenuated the growth inhibition
- r (distance from bound agent to Trp-213 residue of BSA) (BSA [3]): 2.03 nm
- R0 (critical distance at 50% energy transfer efficiency) (BSA [3]): 2.35 nm

Compound: Copper complex of di-2-pyridylketone 2-pyridinecarboxylic acid hydrazone [DPPCAH-Cu]
- antitumor activity compared with DPPCAH (HepG2 cells [1]): significantly enhanced the antitumor activity
- decrease in α-helix of BSA (BSA [4]): 3.5%
- increase in β-sheet of BSA (BSA [4]): 1.45%
- r (distance from bound agent to Trp-213 residue of BSA) (BSA [3]): 2.32 nm
- R0 (critical distance at 50% energy transfer efficiency) (BSA [3]): 2.7 nm
- R0 (critical distance at 50% energy transfer efficiency) (BSA [3]; listed as BSA-DPPCAH-Cu): 2.70 nm
- J (spectral overlap of BSA emission and agent absorption) (BSA [3]; calculated from spectra): 1.7e-14 cm^3·L·mol^-1
